Experimental data from the NIST ThermoML archive (doi:10.1016/j.jct.2006.07.022).
Numbers after ± are expanded uncertainties. Values belong to the compound of their own block, whether it stands above or below them.

Legend:
[1] = refractive index (Na D-line) (dimensionless); conditions: 298.15 K; 101.33 kPa; Liquid; Standard Abbe refractometry
[2] = xn = mol fraction of the nth substance listed; conditions: 101 kPa, Liquid

- refractive index [1]: 1.4962 ± 0.0008
Compound: CCc1ccccc1 [ethylbenzene]

Compound: Cc1ccccc1 [toluene]
- refractive index [1]: 1.4965 ± 0.0008

- mass density ([2]; 293.15 K, x1 = 1): 878.96 ± 0.33 kg/m3
- mass density ([2]; 303.15 K, x1 = 1): 868.21 ± 0.34 kg/m3
- mass density ([2]; 313.15 K, x1 = 1): 857.4 ± 0.36 kg/m3
- mass density ([2]; 323.15 K, x1 = 1): 846.55 ± 0.38 kg/m3
- mass density ([2]; 333.15 K, x1 = 1): 835.66 ± 0.39 kg/m3
- mass density ([2]; 343.15 K, x1 = 1): 824.71 ± 0.41 kg/m3
Compound: c1ccccc1 [benzene] + CN(C)C=O

Compound: CN(C)C=O [dimethylformamide] + CCc1ccccc1
- mass density ([2]; 293.15 K, x2 = 0): 948.58 ± 0.25 kg/m3
- mass density ([2]; 303.15 K, x2 = 0): 939.46 ± 0.26 kg/m3
- mass density ([2]; 313.15 K, x2 = 0): 930.12 ± 0.28 kg/m3
- mass density ([2]; 323.15 K, x2 = 0): 920.55 ± 0.29 kg/m3
- mass density ([2]; 333.15 K, x2 = 0): 910.75 ± 0.3 kg/m3
- mass density ([2]; 343.15 K, x2 = 0): 900.73 ± 0.32 kg/m3
- mass density ([2]; 353.15 K, x2 = 0): 890.48 ± 0.34 kg/m3

Compound: Cc1ccccc1 [toluene] + CN(C)C=O
- mass density ([2]; 293.15 K, x1 = 1): 866.8 ± 0.94 kg/m3
- mass density ([2]; 303.15 K, x1 = 1): 857.53 ± 0.94 kg/m3
- mass density ([2]; 313.15 K, x1 = 1): 848.23 ± 0.94 kg/m3
- mass density ([2]; 323.15 K, x1 = 1): 838.91 ± 0.94 kg/m3
- mass density ([2]; 333.15 K, x1 = 1): 829.55 ± 0.95 kg/m3
- mass density ([2]; 343.15 K, x1 = 1): 820.17 ± 0.95 kg/m3
- mass density ([2]; 353.15 K, x1 = 1): 810.77 ± 0.95 kg/m3

- refractive index [1]: 1.5009 ± 0.0007
Compound: c1ccccc1 [benzene]

Compound: CN(C)C=O [dimethylformamide]
- refractive index [1]: 1.4307 ± 0.0007
